Measured values taken from ChEMBL document CHEMBL3297661, “1-Substituted-5-[(3,5-dinitrobenzyl)sulfanyl]-1H-tetrazoles and their isosteric analogs: A new class of selective antitubercular agents active against drug-susceptible and multidrug-resistant mycobacteria” (Eur J Med Chem, 2014).
Converted amounts (≈) assume the structure as drawn.

Tests used:
[1] = system: Pseudomonas aeruginosa; experiment: Antibacterial activity against Pseudomonas aeruginosa ATCC 9027 after 48 hrs by broth microdilution method; format: functional; settings: ATCC 9027, 48 h
[2] = system: Candida albicans; experiment: Antifungal activity against Candida albicans ATCC 44859 after 24 hrs by broth microdilution method; format: functional; settings: ATCC 44859, 24 h
[3] = system: Candida albicans; experiment: Antifungal activity against Candida albicans ATCC 44859 after 48 hrs by broth microdilution method; format: functional; settings: ATCC 44859, 48 h
[4] = system: Candida tropicalis; experiment: Antifungal activity against Candida tropicalis 156 after 24 hrs by broth microdilution method; format: functional; settings: Candida tropicalis, 156, 24 h
[5] = system: Candida tropicalis; experiment: Antifungal activity against Candida tropicalis 156 after 48 hrs by broth microdilution method; format: functional; settings: Candida tropicalis, 156, 48 h
[6] = system: Pichia kudriavzevii; experiment: Antifungal activity against Candida krusei E28 after 24 hrs by broth microdilution method; format: functional; settings: E28, 24 h
[7] = system: Pichia kudriavzevii; experiment: Antifungal activity against Candida krusei E28 after 48 hrs by broth microdilution method; format: functional; settings: E28, 48 h
[8] = system: Nakaseomyces glabratus; experiment: Antifungal activity against Candida glabrata 20/I after 24 hrs by broth microdilution method; format: functional
[9] = system: Nakaseomyces glabratus; experiment: Antifungal activity against Candida glabrata 20/I after 48 hrs by broth microdilution method; format: functional
[10] = system: Trichosporon asahii; experiment: Antifungal activity against Trichosporon asahii 1188 after 24 hrs by broth microdilution method; format: functional; settings: Trichosporon asahii, 1188, 24 h
[11] = system: Trichosporon asahii; experiment: Antifungal activity against Trichosporon asahii 1188 after 48 hrs by broth microdilution method; format: functional; settings: Trichosporon asahii, 1188, 48 h
[12] = system: Aspergillus fumigatus; experiment: Antifungal activity against Aspergillus fumigatus 231 after 24 hrs by broth microdilution method; format: functional, organism-based; settings: Aspergillus fumigatus, 231, 24 h
[13] = system: Aspergillus fumigatus; experiment: Antifungal activity against Aspergillus fumigatus 231 after 48 hrs by broth microdilution method; format: functional, organism-based; settings: Aspergillus fumigatus, 231, 48 h
[14] = system: Lichtheimia corymbifera; experiment: Antifungal activity against Absidia corymbifera 272 after 24 hrs by broth microdilution method; format: functional, organism-based; settings: Lichtheimia corymbifera, 272, 24 h
[15] = system: Lichtheimia corymbifera; experiment: Antifungal activity against Absidia corymbifera 272 after 48 hrs by broth microdilution method; format: functional, organism-based; settings: Lichtheimia corymbifera, 272, 48 h
[16] = system: Trichophyton mentagrophytes; experiment: Antifungal activity against Trichophyton mentagrophytes 445 after 72 hrs by broth microdilution method; format: functional, organism-based; settings: Trichophyton mentagrophytes, 445, 72 h
[17] = system: Trichophyton mentagrophytes; experiment: Antifungal activity against Trichophyton mentagrophytes 445 after 120 hrs by broth microdilution method; format: functional, organism-based; settings: Trichophyton mentagrophytes, 445, 120 h
[18] = Cytotoxicity against human HeLa cells assessed as cell viability at 30 uM after 48 hrs by MTT assay; format: cell-based; settings: read-out: Activity
[19] = Cytotoxicity against human HuH7 cells assessed as cell viability at 30 uM after 48 hrs by MTT assay; format: cell-based, Huh-7; settings: read-out: Activity
[20] = Cytotoxicity against human HepG2 cells assessed as cell viability at 30 uM after 48 hrs by MTT assay; format: cell-based; settings: read-out: Activity
[21] = Cytotoxicity against MDCK2 cells assessed as cell viability at 30 uM after 48 hrs by MTT assay; format: cell-based, Canis lupus familiaris, MDCK-II; settings: dog, read-out: Activity
[22] = system: HeLa; experiment: Cytotoxicity against human HeLa cells assessed as reduction in cell viability after 48 hrs by MTT assay; format: cell-based
[23] = Cytotoxicity against human HuH7 cells assessed as reduction in cell viability after 48 hrs by MTT assay; format: cell-based; settings: Huh-7, 48 h
[24] = Cytotoxicity against MDCK2 cells assessed as reduction in cell viability after 48 hrs by MTT assay; format: cell-based; settings: Canis lupus familiaris, MDCK-II
[25] = system: HepG2; experiment: Cytotoxicity against human HepG2 cells assessed as reduction in cell viability after 48 hrs by MTT assay; format: cell-based; settings: HepG2, 48 h
[26] = system: Mycobacterium tuberculosis; experiment: Antimycobacterial activity against Mycobacterium tuberculosis CNCTC My 331/88 after 14 days by micromethod; format: functional; settings: CNCTC My 331/88, 336 h
[27] = system: Mycobacterium tuberculosis; experiment: Antimycobacterial activity against Mycobacterium tuberculosis CNCTC My 331/88 after 21 days by micromethod; format: functional; settings: CNCTC My 331/88, 504 h
[28] = system: Mycobacterium avium; experiment: Antimycobacterial activity against Mycobacterium avium CNCTC My 330/88 after 14 days by micromethod; format: functional; settings: CNCTC My 330/88, 336 h
[29] = system: Mycobacterium avium; experiment: Antimycobacterial activity against Mycobacterium avium CNCTC My 330/88 after 21 days by micromethod; format: functional; settings: CNCTC My 330/88, 504 h
[30] = system: Mycobacterium kansasii; experiment: Antimycobacterial activity against Mycobacterium kansasii CNCTC My 235/80 after 7 days by micromethod; format: functional; settings: CNCTC My 235/80, 168 h
[31] = system: Mycobacterium kansasii; experiment: Antimycobacterial activity against Mycobacterium kansasii CNCTC My 235/80 after 14 days by micromethod; format: functional; settings: CNCTC My 235/80, 336 h
[32] = system: Mycobacterium kansasii; experiment: Antimycobacterial activity against Mycobacterium kansasii CNCTC My 235/80 after 21 days by micromethod; format: functional; settings: CNCTC My 235/80, 504 h
[33] = system: Mycobacterium kansasii; experiment: Antimycobacterial activity against Mycobacterium kansasii 6509/96 after 7 days by micromethod; format: functional; settings: 6509/96, 168 h
[34] = system: Mycobacterium kansasii; experiment: Antimycobacterial activity against Mycobacterium kansasii 6509/96 after 14 days by micromethod; format: functional; settings: 6509/96, 336 h
[35] = system: Mycobacterium kansasii; experiment: Antimycobacterial activity against Mycobacterium kansasii 6509/96 after 21 days by micromethod; format: functional; settings: 6509/96, 504 h
[36] = system: Staphylococcus aureus; experiment: Antibacterial activity against Staphylococcus aureus ATCC 6538 after 24 hrs by broth microdilution method; format: functional; settings: ATCC 6538, 24 h
[37] = system: Staphylococcus aureus; experiment: Antibacterial activity against Staphylococcus aureus ATCC 6538 after 48 hrs by broth microdilution method; format: functional; settings: ATCC 6538, 48 h
[38] = system: Staphylococcus aureus; experiment: Antibacterial activity against methicillin-resistant Staphylococcus aureus H 5996/08 after 24 hrs by broth microdilution method; format: functional; settings: H 5996/08, 24 h
[39] = system: Staphylococcus aureus; experiment: Antibacterial activity against methicillin-resistant Staphylococcus aureus H 5996/08 after 48 hrs by broth microdilution method; format: functional; settings: H 5996/08, 48 h
[40] = system: Staphylococcus epidermidis; experiment: Antibacterial activity against Staphylococcus epidermidis H 6966/08 after 24 hrs by broth microdilution method; format: functional; settings: H 6966/08, 24 h
[41] = system: Staphylococcus epidermidis; experiment: Antibacterial activity against Staphylococcus epidermidis H 6966/08 after 48 hrs by broth microdilution method; format: functional; settings: H 6966/08, 48 h
[42] = system: Enterococcus faecalis; experiment: Antibacterial activity against Enterococcus faecalis J 14365/08 after 24 hrs by broth microdilution method; format: functional; settings: J 14365/08, 24 h
[43] = system: Enterococcus faecalis; experiment: Antibacterial activity against Enterococcus faecalis J 14365/08 after 48 hrs by broth microdilution method; format: functional; settings: J 14365/08, 48 h
[44] = system: Escherichia coli; experiment: Antibacterial activity against Escherichia coli ATCC 8739 after 24 hrs by broth microdilution method; format: functional; settings: ATCC 8739, ATCC 8739, 24 h
[45] = system: Escherichia coli; experiment: Antibacterial activity against Escherichia coli ATCC 8739 after 48 hrs by broth microdilution method; format: functional; settings: ATCC 8739, ATCC 8739, 48 h
[46] = system: Klebsiella pneumoniae; experiment: Antibacterial activity against Klebsiella pneumoniae D 11750/08 after 24 hrs by broth microdilution method; format: functional; settings: D 11750/08, 24 h
[47] = system: Klebsiella pneumoniae; experiment: Antibacterial activity against Klebsiella pneumoniae D 11750/08 after 48 hrs by broth microdilution method; format: functional; settings: D 11750/08, 48 h
[48] = system: Klebsiella pneumoniae; experiment: Antibacterial activity against extended spectrum beta-lactamase producing Klebsiella pneumoniae J 14368/08 after 24 hrs by broth microdilution method; format: functional; settings: J 14368/08, 24 h
[49] = system: Klebsiella pneumoniae; experiment: Antibacterial activity against extended spectrum beta-lactamase producing Klebsiella pneumoniae J 14368/08 after 48 hrs by broth microdilution method; format: functional; settings: J 14368/08, 48 h
[50] = system: Pseudomonas aeruginosa; experiment: Antibacterial activity against Pseudomonas aeruginosa ATCC 9027 after 24 hrs by broth microdilution method; format: functional; settings: ATCC 9027, 24 h

Compound `O=[N+]([O-])c1ccc(C[Se]c2nnnn2C2CCCCC2)c([N+](=O)[O-])c1` has an IC95 [1] greater than 500 µM, an IC80 [2] of 15.6 µM and an IC80 [3] of 15.6 µM. The IC80 [4] was greater than 500 µM, the IC80 [5] was greater than 500 µM and the IC80 [6] was greater than 500 µM. It also gave an IC80 [7] greater than 500 µM, an IC80 [8] of 62.5 µM and an IC80 [9] of 62.5 µM. The IC80 [10] was 62.5 µM, the IC80 [11] was 250 µM and the IC50 [12] was greater than 500 µM. It also gave an IC50 [13] greater than 500 µM, an IC50 [14] of 500 µM and an IC50 [15] greater than 500 µM. It also gave an IC50 [16] of 31.2 µM, an IC50 [17] of 31.2 µM and a viability at 48 h, 30 µM [18] of 32%. The viability at 48 h, 30 µM [19] was 49%, the viability at 48 h, 30 µM [20] was 4% and the viability at 48 h, 30 µM [21] was 11%. The IC50 [22] was 29 µM, the IC50 [23] was greater than 30 µM and the IC50 [24] was less than 7.5 µM. It also gave an IC50 [25] of 11 µM, an MIC [26] of 4 µM (≈ 1.65 µg/mL) and an MIC [27] of 8 µM (≈ 3.29 µg/mL). The MIC [28] was 32 µM (≈ 13.2 µg/mL), the MIC [29] was 32 µM (≈ 13.2 µg/mL) and the MIC [30] was 4 µM (≈ 1.65 µg/mL). The MIC [31] was 16 µM (≈ 6.58 µg/mL), the MIC [32] was 16 µM (≈ 6.58 µg/mL) and the MIC [33] was 16 µM (≈ 6.58 µg/mL). The MIC [34] was 62 µM (≈ 25.5 µg/mL), the MIC [35] was 62 µM (≈ 25.5 µg/mL) and the IC95 [36] was 31.2 µM. It also gave an IC95 [37] of 31.2 µM, an IC95 [38] of 31.2 µM and an IC95 [39] of 31.2 µM. For the same compound, the IC95 [40] was 15.6 µM, the IC95 [41] was 15.6 µM and the IC95 [42] was 15.6 µM. It also gave an IC95 [43] of 15.6 µM, an IC95 [44] greater than 500 µM and an IC95 [45] greater than 500 µM. It also gave an IC95 [46] greater than 500 µM, an IC95 [47] greater than 500 µM and an IC95 [48] greater than 500 µM. For the same compound, the IC95 [49] was greater than 500 µM and the IC95 [50] was greater than 500 µM.
